Results as given in US7683061B2, “Triazine dimers for the treatment of autoimmune diseases” (ProMetic BioSciences Inc., priority 2003, dated 2010).
Read-outs that look alike come from different tables or passages of the source.

What was measured:
[1] = molecular target: T1, Fc portion of human IgG (binding of protein A to human IgG); assay: Competitive protein A binding ELISA; settings: Table 1
T1 construct: fused on or other part: Horseradish peroxidase chemically conjugated to the IgG (HRP-IgG)
Method: As described above, this assay evaluates the ability of the exemplified compounds to mimic protein A. Such compounds can bind to the Fc portion of human IgG as ascertained by the inhibition of binding of protein A to human IgG. The competitive protein A binding ELISA assay was performed on a 96-well plate Maxisorp surface to enhance the binding of protein A to the bottom of the plate. The wells were coated with 100 μL of protein A (0.8 μg) and incubated overnight at 4° C. After incubation, unbound protein A was removed by three washes with phosphate buffer saline (PBS). The plate was then incubated with 100 μL/well of a 2% solution of bovine serum albumin (BSA) for 1 h at 37° C. to block non specific protein binding. After incubation, the plate was washed to times with PBS. 50 μL of compound or protein A, diluted in PBS or PBS-20% DMSO at appropriate concentration, were added to the wells followed by addition of 50 μL of peroxidase-conjugated human IgG (HRP-IgG). After 1 h incubation at 37° C., the plate was washed free times with PBS to remove unbound HRP-IgG. Bound HRP-IgG was detected by incubation with 100 μL of 2,2′-Azino-di[3-ethylbenzothiazoline sulfonate]diammonium salt crystals (ABTS) solution for 20 min in the dark at room temperature. The plate was then read at 405 nm on a EL 800, universal Microplate reader (Bio-Tek). Data was analyzed in Microsoft Excel and the concentration of compound which inhibits 50% binding of protein A (IC50) was calculated using Prism software.
Table 1 represents the IC50 of compounds tested in the competitive protein A binding ELISA assay, which consists of a side-by-side analysis in PBS and PBS-20% DMSO. DMSO was used to increase the solubility of some of the compounds.

RAW 264.7 cells = assay: Phagocytosis of FITC-immune complexes by RAW 264.7 cells; type: cell-based; settings: Mus musculus, RAW264.7; 20 μM; read-out: inhibition of phagocytosis of IC
Method: This assay was performed to determine the ability of protein A mimic compounds to stimulate or inhibit uptake of FITC-Immune Complex (IC). FITC-IC was prepared by mixing human serum albumin (HSA)-fluorescein isothiocyanate (FITC) with mouse IgG anti-HSA at a 1:4 ratio (four molecules of antibody for one molecule of antigen) on a rotary shaker for 1 h at room temperature. Soluble IC was then incubated with or without compounds or protein A for 10 min. This mixture was added to RAW 264.7 cells and incubated for 2 h at 37° C. for IC phagocytosis. After incubation, cells were washed twice in cold PBS (5 min, 1200 rpm) and fixed with 500 μL PBS containing 2% formaldehyde. FITC signal taken up by RAW 264.7, which is indicative of IC phagocytosis, was determined by flow cytometry analysis in a Becton Coulter counter with an argon laser and signal was measured through a 530/30 nm filter.

[2] = test system: TNFα production, J774A-1 cells; assay: LPS-induced TNFα production in J774A-1 cells (ELISA); type: cell-based; settings: Mus musculus, J774.A1, 24 h, read-out: IC50 (μM), inhibition of TNFα released by LPS induction
Method: Effect of compounds on TNFα production was measured by ELISA using J774-1 cells stimulated by LPS. J774-1 cells were cultured in the presence or absence of LPS and compound. Cells were cultured at 37° C. for 24 h and thereafter the supernatants were collected for the determination of the concentration of TNFα by ELISA as recommended by the manufacturer (BD Biosciences). Data was analyzed in Microsoft Excel and the concentration of compound which inhibits 50% of TNFα production (IC50) was calculated using Prism software.

MRL/lpr mice = assay: SLE-like syndrome in MRL/lpr mice; type: in vivo; settings: control group 10%
Excerpt: FIG. 5 is an example of the effect of compounds on survival of MRL/lpr mice. These mice also spontaneously develop SLE-like syndrome. MRL/lpr have a homozygous fas mutation, which accelerates autoimmunity. […] Furthermore, compounds 1 and 20 increase the survival (40%) compared to the control group (10%).

[3] = test system: female Lewis rats, adjuvant-induced arthritis; assay: Freund's adjuvant-induced arthritis (AIA); type: in vivo
Excerpt: AIA was induced in female Lewis rats by the injection of lyophilized Mycobacterium butyricum suspended in mineral oil into the footpad. The development of aridity was monitored over a 3 weeks period post-adjuvant injection, inflammation peaks at day 3 following the adjuvant administration. Immune activation appears around day 14. Compounds were orally or intravenously administered at different doses at day −3, −2 and −1 pre-adjuvant injection and at different regimen as specified in the exponent starting from day 10 through 21 post-adjuvant injection or animals were treated with oral admiration of compound 19a from day −3 to day 21. Body weight was recorded. The arthritis index, which is a measure of inflammation (oedema), redness and stiffness of the articulations, was used to monitor the development of the disease. The degree of arthritis was determined by measuring two perpendicular diameters of the ankles in the mediolateral and dorsoventral planes using a caliper. Joint circumference in millimeters is then calculated using a geometric formula. Both the incidence and severity of the arthritis was evaluated. Incidence is defined as the number of rats with clinical evidence of joint inflammation during the study period.

[4] = test system: female Lewis rats, collagen-induced arthritis; assay: Collagen-induced arthritis (CIA); type: in vivo; settings: intravenous; by day 14 and beyond
Method: Collagen-induced arthritis (CIA) was induced in female Lewis rats by intradermal administration of heterologous (bovine) type II collagen (250 μg) solubilized in 0.1 M acetic acid and emulsified in Complete Freund's Adjuvant (CFA). Rats were treated with the vehicle or methotrexate or compound 1 by intravenous injections at day 8, 9, 12, 14 and 16. Synovitis typically develops 12-15 days postimmunization in 80-90% of the animals. Once arthritis appears, each paw was examined two to three times a week. Both the incidence and severity of the arthritis was evaluated. Incidence is defined as the number of rats with clinical evidence of joint inflammation during the study period while severity was quantified by scoring daily each paw integer on a scale of 0 to 4 (0=normal, 4=maximum; Table 7) based on increasing levels of swelling, periarticular erythema and stiffness. The sum of the scores for all four paws was calculated as the arthritic index with a maximum possible score of 16 per rat. Since CIA primarily affects hind limbs, scores of 6-8 represent severe arthritis.

[5] = PBS-20% DMSO, read-out: IC50 (μM): Assay in PBS-20% DMSO

| IC50 ([1]; PBS, read-out: IC50 (μM): Assay in PBS) [µM] | SMILES | IC50 [1, 5] [µM] | inhibition at 20 µM (RAW 264.7 cells) [%] | IC50 [2] [µM] | survival of MRL/lpr mice (MRL/lpr mice) [%] | inhibition of chronic inflammation (days 12 to 21) ([3]; days 15 to 21) | reduction in the severity of arthritis (inflammatory index) ([3]; intravenous, by day 19 and over, FIG. 10) [%] | reduction in the severity of arthritis (arthritic index) [4] [%] |
| --- | --- | --- | --- | --- | --- | --- | --- | --- |
| 33 | N=C(N)NCCNc1nc(NCCc2ccc(Oc3nc(NCCc4ccc(O)cc4)nc(Nc4ccccc4)n3)cc2)nc(Nc2ccccc2)n1 [Compound 14] | 63 | ~50 | 11.8 | – | – | – | – |
| – | OCCNc1nc(NCCc2ccc(Nc3nc(NCCc4ccc(O)cc4)nc(Nc4ccccc4)n3)cc2)nc(Nc2ccccc2)n1 [Compound 20] | 26 | – | 23.3 | 40 | – | – | – |
| – | CN(Cc1cnc2nc(N)nc(N)c2n1)c1ccc(C(=O)N[C@@H](CCC(=O)O)C(=O)O)cc1 [methotrexate, reference compound] | – | – | – | – | strong and significant inhibition of inflammation | 50 | 50 |
